Assay results taken from patent US9012443B2 (Amgen Inc., priority 2011, dated 2015).

Assays:
Nav 1.7 = Nav 1.7 (Homo sapiens (Human), UniProt Q15858); test: Nav 1.7 in vitro PX assay (PatchXpress whole cell voltage clamp); type: cell-based; conditions: 293 cells, human Nav1.7, partially inactivated state; read-out: Nav1.7 PX IC50 IP
How it was run: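 HEK293 cells stably expressing human Nav1.7, whole-cell voltage clamp on PatchXpress, held at potential giving 20–50% inactivation; current elicited by 20 msec pulse to −10 mV.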

Nav 1.5 = Nav 1.5 (Homo sapiens (Human), UniProt Q14524); test: Nav 1.5 in vitro PX assay (PatchXpress whole cell voltage clamp); type: cell-based; conditions: 293 cells stably transfected with Nav 1.5; second part of table; read-out: Nav1.5 PX IC50
Method: Nav 1.5 In Vitro PX Assay
293 cells stably transfected with Nav 1.5 were recorded in whole cell voltage clamp mode with the PatchXpress automated electrophysiology system according the manufacturer's specifications (Molecular Devices, LLC, Sunnyvale, Calif.). Cells were held at a holding potential of −50 mV to inactivate sodium channels. To elicit sodium currents the voltage was changed to −120 mV to recover a portion of the channels, followed by delivery of test pulses of 20 msec duration to 0 mV, at 0.1 Hz. A single concentration of test compound was applied to cells for a duration of 5 minutes. Peak sodium current was measured at the end of the compound addition period to determine percent inhibition. A minimum of two cells were tested per concentration. IC50 curves were fitted to percent inhibition as a function of concentration.

Chain of Nav 1.7 (Q15858 whole entry): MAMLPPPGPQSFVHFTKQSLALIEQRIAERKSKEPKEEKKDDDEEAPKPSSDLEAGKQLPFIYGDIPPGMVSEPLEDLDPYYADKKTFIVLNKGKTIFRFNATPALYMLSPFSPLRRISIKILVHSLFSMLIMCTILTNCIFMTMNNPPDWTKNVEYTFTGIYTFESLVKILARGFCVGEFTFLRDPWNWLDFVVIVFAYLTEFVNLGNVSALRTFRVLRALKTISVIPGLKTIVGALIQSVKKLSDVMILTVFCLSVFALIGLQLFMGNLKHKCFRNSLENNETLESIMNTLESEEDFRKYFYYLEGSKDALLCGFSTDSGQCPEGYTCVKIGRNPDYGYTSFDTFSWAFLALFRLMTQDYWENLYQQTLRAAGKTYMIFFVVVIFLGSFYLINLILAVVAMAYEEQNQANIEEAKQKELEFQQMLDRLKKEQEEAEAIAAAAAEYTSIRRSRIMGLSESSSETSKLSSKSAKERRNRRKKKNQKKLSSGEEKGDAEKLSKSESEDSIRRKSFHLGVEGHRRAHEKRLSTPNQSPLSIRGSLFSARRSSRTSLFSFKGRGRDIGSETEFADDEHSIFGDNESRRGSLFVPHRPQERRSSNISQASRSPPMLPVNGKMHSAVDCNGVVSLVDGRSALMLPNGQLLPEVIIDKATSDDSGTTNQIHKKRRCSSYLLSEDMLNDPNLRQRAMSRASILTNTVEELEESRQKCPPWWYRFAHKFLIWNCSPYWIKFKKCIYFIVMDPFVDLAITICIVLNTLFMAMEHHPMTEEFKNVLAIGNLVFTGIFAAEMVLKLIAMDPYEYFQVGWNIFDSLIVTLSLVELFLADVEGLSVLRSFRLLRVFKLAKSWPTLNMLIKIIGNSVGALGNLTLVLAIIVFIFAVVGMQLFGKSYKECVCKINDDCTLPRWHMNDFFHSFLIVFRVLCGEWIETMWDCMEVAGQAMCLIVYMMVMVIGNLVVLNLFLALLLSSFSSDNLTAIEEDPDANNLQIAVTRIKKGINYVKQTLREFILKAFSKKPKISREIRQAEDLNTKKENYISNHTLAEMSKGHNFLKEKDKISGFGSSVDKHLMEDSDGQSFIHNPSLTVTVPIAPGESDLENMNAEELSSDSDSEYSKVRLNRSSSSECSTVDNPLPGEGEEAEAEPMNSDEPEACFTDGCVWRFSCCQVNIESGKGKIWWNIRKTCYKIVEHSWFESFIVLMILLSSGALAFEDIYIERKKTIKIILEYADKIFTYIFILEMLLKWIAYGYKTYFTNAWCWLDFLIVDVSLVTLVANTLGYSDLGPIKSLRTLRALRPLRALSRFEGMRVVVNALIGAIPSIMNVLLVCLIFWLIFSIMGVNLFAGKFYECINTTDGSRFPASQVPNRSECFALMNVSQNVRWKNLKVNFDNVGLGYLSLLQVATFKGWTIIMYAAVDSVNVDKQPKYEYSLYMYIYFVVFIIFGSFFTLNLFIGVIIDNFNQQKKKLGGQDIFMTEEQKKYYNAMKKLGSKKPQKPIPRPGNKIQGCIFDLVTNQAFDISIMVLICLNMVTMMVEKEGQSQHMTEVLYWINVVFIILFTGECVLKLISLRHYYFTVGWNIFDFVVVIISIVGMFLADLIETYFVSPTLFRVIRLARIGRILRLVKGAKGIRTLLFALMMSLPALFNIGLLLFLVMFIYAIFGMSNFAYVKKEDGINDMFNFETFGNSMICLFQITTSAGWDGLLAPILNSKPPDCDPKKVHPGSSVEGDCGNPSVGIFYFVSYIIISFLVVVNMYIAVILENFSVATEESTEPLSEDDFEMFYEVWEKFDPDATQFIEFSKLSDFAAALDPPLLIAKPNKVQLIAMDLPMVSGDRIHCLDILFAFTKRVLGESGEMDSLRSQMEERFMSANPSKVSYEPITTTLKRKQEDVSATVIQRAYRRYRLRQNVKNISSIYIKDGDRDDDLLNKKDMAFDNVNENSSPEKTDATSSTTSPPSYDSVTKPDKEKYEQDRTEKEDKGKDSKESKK
Chain of Nav 1.5 (Q14524 whole entry): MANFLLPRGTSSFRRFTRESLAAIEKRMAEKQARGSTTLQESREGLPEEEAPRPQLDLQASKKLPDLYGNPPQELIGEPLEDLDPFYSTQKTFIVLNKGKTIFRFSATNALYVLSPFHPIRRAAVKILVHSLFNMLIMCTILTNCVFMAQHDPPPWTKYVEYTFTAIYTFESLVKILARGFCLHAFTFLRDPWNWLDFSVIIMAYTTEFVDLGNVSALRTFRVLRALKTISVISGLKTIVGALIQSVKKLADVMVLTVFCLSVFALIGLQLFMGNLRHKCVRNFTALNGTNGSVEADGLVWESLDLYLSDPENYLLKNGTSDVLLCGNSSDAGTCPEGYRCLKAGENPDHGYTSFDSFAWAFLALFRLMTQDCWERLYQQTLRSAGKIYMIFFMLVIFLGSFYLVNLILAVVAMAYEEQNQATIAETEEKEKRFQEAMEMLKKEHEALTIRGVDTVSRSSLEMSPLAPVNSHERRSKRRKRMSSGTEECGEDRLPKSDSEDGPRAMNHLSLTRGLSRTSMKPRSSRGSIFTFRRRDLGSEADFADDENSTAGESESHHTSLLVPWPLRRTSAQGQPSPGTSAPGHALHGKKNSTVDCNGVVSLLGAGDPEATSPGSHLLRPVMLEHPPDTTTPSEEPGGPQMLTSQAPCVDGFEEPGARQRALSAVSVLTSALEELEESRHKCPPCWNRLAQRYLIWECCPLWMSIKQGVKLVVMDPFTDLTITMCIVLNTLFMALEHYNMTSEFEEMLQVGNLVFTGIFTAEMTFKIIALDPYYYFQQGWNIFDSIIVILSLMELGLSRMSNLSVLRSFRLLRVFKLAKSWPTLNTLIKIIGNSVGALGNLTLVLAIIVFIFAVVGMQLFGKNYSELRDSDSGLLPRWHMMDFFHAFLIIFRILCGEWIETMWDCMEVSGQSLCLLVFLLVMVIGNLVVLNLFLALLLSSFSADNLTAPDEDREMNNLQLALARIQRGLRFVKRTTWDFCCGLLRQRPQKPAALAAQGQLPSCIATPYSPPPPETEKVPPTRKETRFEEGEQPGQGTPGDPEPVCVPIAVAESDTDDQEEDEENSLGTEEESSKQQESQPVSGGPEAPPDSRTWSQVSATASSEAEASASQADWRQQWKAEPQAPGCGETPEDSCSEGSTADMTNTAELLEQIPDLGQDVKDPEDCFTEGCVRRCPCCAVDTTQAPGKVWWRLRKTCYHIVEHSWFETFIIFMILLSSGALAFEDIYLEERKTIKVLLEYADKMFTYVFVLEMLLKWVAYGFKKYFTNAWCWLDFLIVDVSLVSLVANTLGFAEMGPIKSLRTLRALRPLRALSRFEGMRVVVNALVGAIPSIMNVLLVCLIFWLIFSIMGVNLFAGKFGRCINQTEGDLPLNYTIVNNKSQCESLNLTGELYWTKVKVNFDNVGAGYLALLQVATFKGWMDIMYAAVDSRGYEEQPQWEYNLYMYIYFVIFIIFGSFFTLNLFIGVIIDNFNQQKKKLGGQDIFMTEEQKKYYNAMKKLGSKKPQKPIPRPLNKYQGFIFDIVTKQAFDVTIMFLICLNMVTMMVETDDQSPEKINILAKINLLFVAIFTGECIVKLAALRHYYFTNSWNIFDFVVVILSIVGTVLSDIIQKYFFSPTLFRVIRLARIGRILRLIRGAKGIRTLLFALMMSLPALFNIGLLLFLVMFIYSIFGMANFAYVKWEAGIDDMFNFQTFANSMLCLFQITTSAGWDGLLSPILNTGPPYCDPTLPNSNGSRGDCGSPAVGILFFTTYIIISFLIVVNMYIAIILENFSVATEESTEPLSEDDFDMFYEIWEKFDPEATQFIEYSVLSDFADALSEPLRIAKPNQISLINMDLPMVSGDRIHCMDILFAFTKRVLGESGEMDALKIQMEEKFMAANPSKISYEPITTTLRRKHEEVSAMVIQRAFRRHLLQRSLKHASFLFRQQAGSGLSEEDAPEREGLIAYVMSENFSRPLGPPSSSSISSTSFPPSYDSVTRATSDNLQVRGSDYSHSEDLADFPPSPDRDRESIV

COc1cc(-c2cccc(F)c2)c(Cl)cc1-c1nccc2cc(S(=O)(=O)Nc3ccon3)ccc12 [Example 335, 1-(2-CHLORO-3′-FLUORO-5-METHOXY-[1,1′-BIPHENYL]-4-YL)-N-(ISOXAZOL-3-YL)ISOQUINOLINE-6-SULFONAMIDE]
IC50 (Nav 1.7): 0.052 µM
IC50 (Nav 1.5): > 30 µM

COc1cc(-c2cc(F)cc(F)c2)c(C#N)cc1-c1nccc2cc(S(=O)(=O)Nc3nncs3)ccc12 [Example 338, 1-(2-CYANO-3′,5′-DIFLUORO-5-METHOXY-[1,1′-BIPHENYL]-4-YL)-N-(1,3,4-THIADIAZOL-2-YL)ISOQUINOLINE-6-SULFONAMIDE]
IC50 (Nav 1.7): 0.029 µM
IC50 (Nav 1.5): > 30 µM

N#CCOc1ccccc1-c1ncc(F)c2cc(S(=O)(=O)Nc3nccs3)ccc12 [Example 398, 1-(2-(CYANOMETHOXY)PHENYL)-4-FLUORO-N-(THIAZOL-2-YL)ISOQUINOLINE-6-SULFONAMIDE]
IC50 (Nav 1.7): 0.197 µM
IC50 (Nav 1.5): > 30 µM

COc1nc(-c2ccc(C(F)(F)F)cc2OC)c2ccc(S(=O)(=O)Nc3nccs3)cc2n1 [Example 511, 2-methoxy-4-(2-methoxy-4-(trifluoromethyl)phenyl)-N-(thiazol-2-yl)quinazoline-7-sulfonamide]
IC50 (Nav 1.7): 0.257 µM
IC50 (Nav 1.5): > 30 µM

COc1cc(-c2cc(C)cc(Cl)c2)ccc1-c1nccc2cc(S(=O)(=O)Nc3ccncn3)ccc12 [Example 495, 1-(3′-CHLORO-3-METHOXY-5′-METHYL-[1,1′-BIPHENYL]-4-YL)-N-(PYRIMIDIN-4-YL)ISOQUINOLINE-6-SULFONAMIDE]
IC50 (Nav 1.7): 0.095 µM
IC50 (Nav 1.5): 19.1 µM

COc1cc(-c2ccc(Cl)c(C)c2)ccc1-c1nccc2cc(S(=O)(=O)Nc3ccncn3)ccc12 [Example 493, 1-(4′-CHLORO-3-METHOXY-3′-METHYL-[1,1′-BIPHENYL]-4-YL)-N-(PYRIMIDIN-4-YL)ISOQUINOLINE-6-SULFONAMIDE]
IC50 (Nav 1.7): 0.086 µM
IC50 (Nav 1.5): > 30 µM

COc1cc(F)ccc1-c1ncnc2cc(S(=O)(=O)Nc3nccs3)ccc12 [Example 271, 4-(4-FLUORO-2-METHOXYPHENYL)-N-(THIAZOL-2-YL)QUINAZOLINE-7-SULFONAMIDE]
IC50 (Nav 1.7): 0.45 µM
IC50 (Nav 1.5): > 30 µM

COc1ccc(-c2cccc(F)c2)cc1-c1ccnc2cc(S(=O)(=O)Nc3ccncn3)ccc12 [Example 321, 4-(3′-FLUORO-4-METHOXY-[1,1′-BIPHENYL]-3-YL)-N-(PYRIMIDIN-4-YL)QUINOLINE-7-SULFONAMIDE]
IC50 (Nav 1.7): 0.251 µM
IC50 (Nav 1.5): > 30 µM

COc1cc(-c2cccc(F)c2)ccc1-c1ncnc2cc(S(=O)(=O)Nc3nncs3)ccc12 [Example 529, 4-(3′-FLUORO-3-METHOXY-[1,1′-BIPHENYL]-4-YL)-N-(1,3,4-THIADIAZOL-2-YL)QUINAZOLINE-7-SULFONAMIDE]
IC50 (Nav 1.7): 0.258 µM
IC50 (Nav 1.5): > 30 µM

Cc1cc(-c2cccc(F)c2)ccc1-c1nccc2cc(S(=O)(=O)Nc3ccncn3)ccc12 [Example 358, 1-(3′-FLUORO-3-METHYL-[1,1′-BIPHENYL]-4-YL)-N-(PYRIMIDIN-4-YL)ISOQUINOLINE-6-SULFONAMIDE]
IC50 (Nav 1.7): 0.394 µM
IC50 (Nav 1.5): > 30 µM

COc1cc(-c2cc(C)cc(C)c2)ccc1-c1nccc2cc(S(=O)(=O)Nc3ccncn3)ccc12 [Example 470]
IC50 (Nav 1.7): 0.18 µM
IC50 (Nav 1.5): > 30 µM

COc1cc(C(F)F)c(F)cc1-c1nc(C)nc2cc(S(=O)(=O)Nc3nccs3)ccc12 [Example 514, 4-(4-(difluoromethyl)-5-fluoro-2-methoxyphenyl)-2-methyl-N-(thiazol-2-yl)quinazoline-7-sulfonamide]
IC50 (Nav 1.7): 0.383 µM
IC50 (Nav 1.5): > 30 µM

N#CCOc1cc(C(F)(F)F)ccc1-c1nccc2cc(S(=O)(=O)Nc3nccs3)ccc12 [Example 374, 1-(2-(CYANOMETHOXY)-4-(TRIFLUOROMETHYL)PHENYL)-N-(THIAZOL-2-YL)ISOQUINOLINE-6-SULFONAMIDE]
IC50 (Nav 1.7): 0.309 µM
IC50 (Nav 1.5): > 30 µM

COc1cc(-c2cc(C)cc(F)c2)ccc1-c1nccc2cc(S(=O)(=O)Nc3ccncn3)ccc12 [Example 472, 1-(3′-FLUORO-3-METHOXY-5′-METHYL-[1,1′-BIPHENYL]-4-YL)-N-(PYRIMIDIN-4-YL)ISOQUINOLINE-6-SULFONAMIDE]
IC50 (Nav 1.7): 0.063 µM
IC50 (Nav 1.5): > 30 µM
